Measurements from patent US8426408B2, “Pyrimidine inhibitors of kinases” (AbbVie Inc., priority 2009, dated 2013).

Key:
Aurora B = target: T1, Aurora B (Homo sapiens, UniProt Q96GD4); experiment: Aurora B enzyme inhibition (time-resolved fluorescence, histone H3 peptide); format: biochemical; settings: 1 mM ATP
T1 construct: Active Aurora B enzyme (recombinant residues 1-344)
Summary of the method: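 IC50s came from an exponential fit of inhibition against inhibitor concentration, with phosphorylation read as the 665/615 nm time-resolved fluorescence ratio after EDTA stop using Eu-anti-phospho-H3 and SA-APC. The 1 h reaction used Aurora B 1-344 plus GST-INCENP, biotin-histone H3 1-21 peptide and 1 mM ATP in pH 7.4 HEPES buffer.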

Aurora A = target: T2, Aurora A (Homo sapiens, UniProt O14965); experiment: Aurora A enzyme inhibition (time-resolved fluorescence, STK substrate-2); format: biochemical; settings: 1 mM ATP
T2 sequence (O14965 1-403): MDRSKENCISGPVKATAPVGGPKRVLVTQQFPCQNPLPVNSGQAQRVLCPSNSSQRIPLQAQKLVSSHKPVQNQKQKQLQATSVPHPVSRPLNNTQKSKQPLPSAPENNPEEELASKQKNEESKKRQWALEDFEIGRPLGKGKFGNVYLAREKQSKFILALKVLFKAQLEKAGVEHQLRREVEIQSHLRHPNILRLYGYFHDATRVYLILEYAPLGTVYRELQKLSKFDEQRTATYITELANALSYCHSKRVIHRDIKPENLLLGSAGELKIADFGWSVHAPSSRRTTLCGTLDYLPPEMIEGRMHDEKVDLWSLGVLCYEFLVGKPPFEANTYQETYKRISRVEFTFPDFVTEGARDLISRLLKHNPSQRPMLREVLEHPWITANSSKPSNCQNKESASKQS
Summary of the method: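 Phosphorylation of biotinylated STK substrate-2 at 1 mM ATP, 1 h, Hepes buffer pH 7.4 (MgCl2, sodium orthovanadate, Triton X-100). After EDTA quench, 665/615 nm time-resolved fluorescence ratio read via europium anti-phospho antibody and SA-XL665; IC50 from exponential fit versus inhibitor concentration.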

KDR [1] = target: T3, KDR (Homo sapiens, UniProt P35968); experiment: KDR HTRF in vitro kinase assay; format: biochemical; design: purified enzyme (His6-KDR 789-1354, MW 63 kD); His6 (N); settings: 1 mM ATP; read-out: KDR enzyme inhibition data (Ki)
Summary of the method: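 His6-KDR 789-1354 (7 ng/well) with 0.5 μM biotinylated peptide substrate and 1 mM ATP in HEPES pH 7.1, MgCl2/MnCl2, 60 min at room temperature. EDTA-quenched, detected by streptavidin-XL-665 plus Eu-kryptate anti-phosphotyrosine HTRF after 3 h; IC50 from 620/665 nm ratio.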
Target sequence in this assay (P35968 789-1354): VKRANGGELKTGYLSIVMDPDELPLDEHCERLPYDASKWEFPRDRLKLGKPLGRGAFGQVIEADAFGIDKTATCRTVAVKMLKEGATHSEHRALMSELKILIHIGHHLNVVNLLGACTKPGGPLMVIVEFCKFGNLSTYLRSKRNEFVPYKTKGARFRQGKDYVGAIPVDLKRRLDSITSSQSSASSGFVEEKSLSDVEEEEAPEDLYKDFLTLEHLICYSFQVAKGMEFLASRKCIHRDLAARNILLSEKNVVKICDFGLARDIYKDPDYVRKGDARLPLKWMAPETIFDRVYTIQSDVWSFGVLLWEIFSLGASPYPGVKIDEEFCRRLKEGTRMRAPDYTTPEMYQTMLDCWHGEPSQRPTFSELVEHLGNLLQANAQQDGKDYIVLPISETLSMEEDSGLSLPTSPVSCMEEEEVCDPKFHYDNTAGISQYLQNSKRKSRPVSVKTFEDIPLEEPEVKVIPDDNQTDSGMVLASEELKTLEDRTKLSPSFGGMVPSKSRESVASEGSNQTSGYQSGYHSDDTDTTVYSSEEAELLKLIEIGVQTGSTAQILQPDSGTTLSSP

KDR [2] = target: T3, KDR; experiment: KDR cellular assay (KDR receptor phosphorylation ELISA); format: cell-based; design: expressed in transfected cells; host or cells: 3T3 (embryonic mouse) cells; settings: KDR transfected 3T3 (embryonic mouse) cells, VEGF stimulated; read-out: IC50 inhibition of KDR phosphorylation
Description: The ability of compounds to inhibit KDR receptor phosphorylation in cells was measured by ELISA following the protocol outlined below.
KDR transfected 3T3 (embryonic mouse) cells added to 96-well tissue culture plates at 20,000 cells/well.
Plates were covered and placed in a 37° C. humidified incubator with 5% CO2 overnight, to allow cells to adhere.
Coating solution was prepared: 500 l/vial PBS was added to 2 vials of anti-KDR antibody, then 1 ml solubilized anti-KDR antibody into 29.0 ml bicarbonate buffer. Coating solution was added to all wells at 150 µl/well (final amount anti-KDR=1 µg/well) and placed at 4° C. overnight.
Blocking solution (2.1 g dry milk+42 ml PBS=5% milk in PBS) was placed on a stir plate for 30 min.
Assay plates were washed twice with PBST, and 200 µl/well blocking solution was added to all wells. Assay plates were covered with plate sealers and placed in a 37° C. microplate chamber until just before cell lysate transfer.
Compound stocks were thawed or prepared in DMSO as 5 mM stocks.
Dilution medium (DM, 1% DMSO in DMEM) and compounds were diluted by half-log increments for concentration response analysis.
Conditioned media was dumped from the tissue culture plates, and plates were blotted dry.
Standard solution in DM, compound dilutions in DM, or DM (for high control, negative control, and reference wells) were added to the tissue culture plates, 25 µl/well. Each pair of tissue culture plates was prepared with the same compounds, solutions, and layout; and will be combined later; Tissue culture plates were covered and placed in the 37° C. microplate chamber for 20 min.
VEGF solution was prepared: 110 l VEGF stock+10.89 ml DM=100 ng/ml VEGF
VEGF solution or DM (for reference wells) was added to the tissue culture plates, 25 μl/well.
Tissue culture plates were covered and placed in the 37° C. microplate chamber for 10 min.
RIPA buffer was prepared (240 l NaVO3 stock+240 l PIC stock+24 l NaF stock+23.496 ml RIPA base) and added to the tissue culture plates, 50 µl/well.
Tissue culture plates were covered and placed on a Labline plate shaker for 10 min (speed about 5).
Assay plates were washed twice with PBST.
Cell lysates from matching wells of each pair of tissue culture plates were combined to =200 µl/well, and were pipetted up and down to mix. Cell lysates were transferred to the assay plates using the same layouts, 170 µl/well.
Assay plates were covered with plate sealers and placed on a Labline plate shaker for 2 hr (speed about 5).
Assay plates were washed 5 times with PBST.
Biotin antibody solution was prepared (16 l biotin antibody stock+32 ml PBST=2000× dilution) and added to the assay plates, 150 µl/well.
Assay plates were covered with plate sealers and placed on a Labline plate shaker for 90 min
Streptavidin-HRP solution was prepared (16 l streptavidin-HRP stock+32 ml PBST=2000× dilution) and added to the assay plates, 150 µl/well.
Assay plates were covered with plate sealers and placed on a Labline plate shaker for 60 min
Substrate was added to the assay plates, 100 µl/well.
As assay plates developed, the plates were each monitored on a Molecular Devices Spectramax set to 650 nm, until the signal in the high control wells was around 0.6 OD and the signal in the negative control wells was around 0.1-0.15 OD.
Stop solution was added to the assay plates, 100 µl/well.
The plates were read on a Molecular Devices Spectramax set to 450 nm.
Data was calculated by Assay Explorer, using same-plate high control wells as 0% and reference standard wells as 100% inhibition of KDR phosphorylation. IC50 values were calculated by non-linear regression analysis of the concentration response data.
Target sequence in this assay (P35968 20-1356): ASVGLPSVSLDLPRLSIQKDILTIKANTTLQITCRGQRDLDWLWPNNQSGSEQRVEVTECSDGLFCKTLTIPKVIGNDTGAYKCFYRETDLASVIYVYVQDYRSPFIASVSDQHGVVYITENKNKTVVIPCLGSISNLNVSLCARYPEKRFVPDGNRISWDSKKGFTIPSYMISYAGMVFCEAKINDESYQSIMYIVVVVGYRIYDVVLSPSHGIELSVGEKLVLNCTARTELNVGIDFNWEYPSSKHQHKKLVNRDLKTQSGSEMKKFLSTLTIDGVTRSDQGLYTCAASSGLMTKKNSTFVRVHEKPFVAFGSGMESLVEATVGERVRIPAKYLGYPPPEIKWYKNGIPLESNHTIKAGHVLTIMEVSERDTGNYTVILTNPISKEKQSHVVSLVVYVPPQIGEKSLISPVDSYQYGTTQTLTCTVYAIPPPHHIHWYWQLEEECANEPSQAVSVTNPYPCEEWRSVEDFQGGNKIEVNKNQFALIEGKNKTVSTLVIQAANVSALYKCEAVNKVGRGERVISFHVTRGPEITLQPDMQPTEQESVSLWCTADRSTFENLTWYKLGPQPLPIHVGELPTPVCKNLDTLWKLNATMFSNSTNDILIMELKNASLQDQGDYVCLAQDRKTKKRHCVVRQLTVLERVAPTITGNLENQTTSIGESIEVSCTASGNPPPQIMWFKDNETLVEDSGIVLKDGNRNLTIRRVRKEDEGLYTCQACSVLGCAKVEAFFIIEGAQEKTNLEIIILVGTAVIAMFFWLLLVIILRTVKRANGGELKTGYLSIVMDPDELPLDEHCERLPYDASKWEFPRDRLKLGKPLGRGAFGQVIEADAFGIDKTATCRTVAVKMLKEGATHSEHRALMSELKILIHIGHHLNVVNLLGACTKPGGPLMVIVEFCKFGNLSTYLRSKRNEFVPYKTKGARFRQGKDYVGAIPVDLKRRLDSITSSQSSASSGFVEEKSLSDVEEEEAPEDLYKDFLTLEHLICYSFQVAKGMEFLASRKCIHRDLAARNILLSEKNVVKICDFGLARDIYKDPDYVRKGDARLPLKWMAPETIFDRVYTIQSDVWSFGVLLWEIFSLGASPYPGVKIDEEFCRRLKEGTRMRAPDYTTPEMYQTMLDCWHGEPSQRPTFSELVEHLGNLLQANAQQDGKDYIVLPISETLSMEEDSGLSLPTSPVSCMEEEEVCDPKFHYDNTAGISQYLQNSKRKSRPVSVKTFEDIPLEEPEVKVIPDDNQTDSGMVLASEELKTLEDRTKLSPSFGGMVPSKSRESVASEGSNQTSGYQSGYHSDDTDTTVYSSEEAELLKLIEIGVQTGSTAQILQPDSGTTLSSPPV

T1 sequence (Q96GD4 whole entry, the tested form may be a part): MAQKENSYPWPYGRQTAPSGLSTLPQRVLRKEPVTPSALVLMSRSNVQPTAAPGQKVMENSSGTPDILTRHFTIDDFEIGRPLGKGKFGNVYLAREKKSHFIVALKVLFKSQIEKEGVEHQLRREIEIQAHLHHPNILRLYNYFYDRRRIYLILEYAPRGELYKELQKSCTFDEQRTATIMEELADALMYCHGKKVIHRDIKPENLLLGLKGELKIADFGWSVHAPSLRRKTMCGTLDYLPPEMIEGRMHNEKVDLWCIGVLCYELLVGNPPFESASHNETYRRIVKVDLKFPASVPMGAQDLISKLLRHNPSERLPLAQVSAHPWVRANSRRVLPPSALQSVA
T1 sequence (Q9NQS7 826-918 partner limits assumed): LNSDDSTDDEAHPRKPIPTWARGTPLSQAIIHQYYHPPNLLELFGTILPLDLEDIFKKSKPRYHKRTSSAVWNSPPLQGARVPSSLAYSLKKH

With `Cn1cc(Nc2ncc(Cl)c(N[C@@H]3CC=CC[C@@H]3C(N)=O)n2)cn1.Cn1cc(Nc2ncc(Cl)c(N[C@H]3CC=CC[C@H]3C(N)=O)n2)cn1` (mixture of isomers) [Example 146, (1S,6R)-6-({5-chloro-2-[(1-methyl-1H-pyrazol-4-yl)amino]pyrimidin-4-yl}amino)cyclohex-3-ene-1-carboxamide and (1R,6S)-6-({5-chloro-2-[(1-methyl-1H-pyrazol-4-yl)amino]pyrimidin-4-yl}amino)cyclohex-3-ene-1-carboxamide] the Ki (Aurora B) was < 100 nM, the Ki (Aurora A) was < 100 nM and the Ki (KDR [1]) was 100 to 1000 nM. For the same compound, the IC50 (KDR [2]) was 100 to 1000 nM.
For `Cn1cc(Nc2ncc(Cl)c(N[C@@H]3CCCC[C@@H]3C(N)=O)n2)cn1.Cn1cc(Nc2ncc(Cl)c(N[C@H]3CCCC[C@H]3C(N)=O)n2)cn1` (mixture of isomers) [Example 147, (1S,2R)-2-({5-chloro-2-[(1-methyl-1H-pyrazol-4-yl)amino]pyrimidin-4-yl}amino)cyclohexanecarboxamide and (1R,2S)-2-({5-chloro-2-[(1-methyl-1H-pyrazol-4-yl)amino]pyrimidin-4-yl}amino)cyclohexanecarboxamide], the Ki (Aurora B) was < 100 nM, the Ki (Aurora A) was < 100 nM and the Ki (KDR [1]) was < 100 nM. It also gave an IC50 (KDR [2]) of 100 to 1000 nM.
In the case of `CC(C)NC(=O)[C@@H]1CCC[C@@H]1Nc1nc(Nc2cnn(C)c2)ncc1Cl.CC(C)NC(=O)[C@H]1CCC[C@H]1Nc1nc(Nc2cnn(C)c2)ncc1Cl` (mixture of isomers) [Example 156, (1S,2R)-2-({5-chloro-2-[(1-methyl-1H-pyrazol-4-yl)amino]pyrimidin-4-yl}amino)-N-isopropylcyclopentanecarboxamide and (1R,2S)-2-({5-chloro-2-[(1-methyl-1H-pyrazol-4-yl)amino]pyrimidin-4-yl}amino)-N-isopropylcyclopentanecarboxamide], the Ki (Aurora B) is reported as < 100 nM, the Ki (Aurora A) is reported as < 100 nM and the Ki (KDR [1]) is reported as 100 to 1000 nM. The IC50 (KDR [2]) was 100 to 1000 nM.
With `NC(=O)[C@@H]1[C@H](Nc2nc(Nc3cnn(CC(F)(F)F)c3)ncc2C(F)(F)F)[C@H]2C=C[C@@H]1C2` (racemic) [Example 32, (1S,2S,3R,4R)-3-{[2-{[1-(2,2,2-trifluoroethyl)-1H-pyrazol-4-yl]amino}-5-(trifluoromethyl)pyrimidin-4-yl]amino}bicyclo[2.2.1]hept-5-ene-2-carboxamide and (1R,2R,3S,4S)-3-{[2-{[1-(2,2,2-trifluoroethyl)-1H-pyrazol-4-yl]amino}-5-(trifluoromethyl)pyrimidin-4-yl]amino}bicyclo[2.2.1]hept-5-ene-2-carboxamide] the Ki (Aurora B) was < 100 nM, the Ki (Aurora A) was < 100 nM and the Ki (KDR [1]) was < 100 nM. The IC50 (KDR [2]) was < 100 nM.
For `Cc1nn(C)c(C)c1Nc1ncc(Cl)c(N[C@H]2[C@@H](C(N)=O)[C@@H]3C=C[C@H]2C3)n1` [Example 127, (1S,2S,3R,4R)-3-({5-chloro-2-[(1,3,5-trimethyl-1H-pyrazol-4-yl)amino]pyrimidin-4-yl}amino)bicyclo[2.2.1]hept-5-ene-2-carboxamide], the Ki (Aurora B) was 100 to 1000 nM, the Ki (Aurora A) was 100 to 1000 nM and the Ki (KDR [1]) was 100 to 1000 nM. For the same compound, the IC50 (KDR [2]) was 100 to 1000 nM.
`Cc1nn(C)c(C)c1Nc1ncc(Br)c(N[C@H]2[C@@H](C(N)=O)[C@@H]3C=C[C@H]2C3)n1` [Example 128, (1S,2S,3R,4R)-3-({5-bromo-2-[(1,3,5-trimethyl-1H-pyrazol-4-yl)amino]pyrimidin-4-yl}amino)bicyclo[2.2.1]hept-5-ene-2-carboxamide] showed a Ki (Aurora B) of 100 to 1000 nM, a Ki (Aurora A) of 100 to 1000 nM and a Ki (KDR [1]) of 100 to 1000 nM. For the same compound, the IC50 (KDR [2]) was 100 to 1000 nM.
With `Cn1cc(Nc2ncc(Cl)c(Nc3ccccc3C3(O)CCOCC3)n2)cn1` [Example 133, 4-[2-({5-chloro-2-[(1-methyl-1H-pyrazol-4-yl)amino]pyrimidin-4-yl}amino)phenyl]tetrahydro-2H-pyran-4-ol] the Ki (Aurora B) was < 100 nM, the Ki (Aurora A) was < 100 nM and the Ki (KDR [1]) was 100 to 1000 nM. The IC50 (KDR [2]) was 100 to 1000 nM.
`Cn1cc(Nc2ncc(Cl)c(Nc3ccccc3C(C)(C)O)n2)cn1` [Example 138, 2-[2-({5-chloro-2-[(1-methyl-1H-pyrazol-4-yl)amino]pyrimidin-4-yl}amino)phenyl]propan-2-ol] was tested, and the Ki (Aurora B) was < 100 nM, the Ki (Aurora A) was < 100 nM and the Ki (KDR [1]) was < 100 nM. For the same compound, the IC50 (KDR [2]) was 100 to 1000 nM.
In the case of `Cn1cc(Nc2ncc(Cl)c(Nc3ccccc3CO)n2)cn1` [Example 145, [2-({5-chloro-2-[(1-methyl-1H-pyrazol-4-yl)amino]pyrimidin-4-yl}amino)phenyl]methanol], the Ki (Aurora B) is reported as < 100 nM, the Ki (Aurora A) is reported as < 100 nM and the Ki (KDR [1]) is reported as < 100 nM. For the same compound, the IC50 (KDR [2]) was 100 to 1000 nM.
With `Cn1cc(Nc2ncc(C(F)(F)F)c(Nc3sccc3C(N)=O)n2)cn1` [Example 152, 2-({2-[(1-methyl-1H-pyrazol-4-yl)amino]-5-(trifluoromethyl)pyrimidin-4-yl}amino)thiophene-3-carboxamide] the Ki (Aurora B) was < 100 nM, the Ki (Aurora A) was < 100 nM and the Ki (KDR [1]) was 100 to 1000 nM. For the same compound, the IC50 (KDR [2]) was 100 to 1000 nM.
In the case of `Cn1cc(Nc2ncc(C(F)(F)F)c(Nc3cn(C)nc3C(N)=O)n2)cn1` [Example 153, 1-methyl-4-({2-[(1-methyl-1H-pyrazol-4-yl)amino]-5-(trifluoromethyl)pyrimidin-4-yl}amino)-1H-pyrazole-3-carboxamide], the Ki (Aurora B) is reported as < 100 nM, the Ki (Aurora A) is reported as < 100 nM and the Ki (KDR [1]) is reported as 100 to 1000 nM. The IC50 (KDR [2]) was 100 to 1000 nM.
With `CC(C)NC(=O)[C@H]1CCC[C@H]1Nc1nc(Nc2cnn(CCN3CCOCC3)c2)ncc1Cl` [Example 164, (1S,2R)-2-{[5-chloro-2-({1-[2-(morpholin-4-yl)ethyl]-1H-pyrazol-4-yl}amino)pyrimidin-4-yl]amino}-N-isopropylcyclopentanecarboxamide] the Ki (Aurora B) was < 100 nM, the Ki (Aurora A) was < 100 nM and the Ki (KDR [1]) was 100 to 1000 nM. The IC50 (KDR [2]) was 100 to 1000 nM.
For `CCn1cc(Nc2ncc(Cl)c(N[C@H]3[C@@H](C(N)=O)C[C@H]4C[C@@H]3C4(C)C)n2)cn1` [Example 166, (1R,2R,3S,5R)-2-({5-chloro-2-[(1-ethyl-1H-pyrazol-4-yl)amino]pyrimidin-4-yl}amino)-6,6-dimethylbicyclo[3.1.1]heptane-3-carboxamide], the Ki (Aurora B) was < 100 nM, the Ki (Aurora A) was < 100 nM and the Ki (KDR [1]) was < 100 nM. It also gave an IC50 (KDR [2]) of 100 to 1000 nM.
